Assays:
[1] = system: HCT-116; assay: microarray analysis; format: cell-based, human; settings: HCT-116 by context; 24 hours vs untreated
Procedure: Microarrays. A total of 0.5×10^6 tumor cells (HCT-116, HT-29, KM12C) were plated in a 6-well plate and allowed to adhere overnight before 24-hour treatment, as indicated. Then, 1×10^6 immune cells (NK92, TALL-104) were plated and treated with elraglusib as indicated for twenty-four h. RNA was isolated from cell pellets in batches of six using a RNeasy Plus Mini Kit (Cat #74134, Qiagen, Hilden, Germany). Acceptable RNA concentration and quality were verified with Nanodrop and Bioanalyzer measurements. GeneChip™ Human Transcriptome Array 2.0 assays were conducted according to manufacturer instructions in two batches using randomized samples to limit batch effects (Cat #902162, Applied Biosystems, Waltham, MA, USA). Applied Biosystems Transcriptomic Analysis Console (TAC) software (RRID: SCR_016519) was used to calculate fold changes in gene expression relative to the untreated control cells. Values were considered statistically significant for p values<0.05.
The inventors then utilized microarray analysis to gain insights into gene expression changes in colorectal cancer cell lines post-GSK-3 inhibition with elraglusib. Several colorectal cancer cell lines (HCT-116, HT-29, KM12C) were treated with elraglusib at IC-50 concentrations or DMSO as vehicle control for twenty-four hours. Treated versus untreated samples were compared in triplicate using microarray analysis FIG. 10. Results were calculated using a fold change (FC) cutoff of >1.5, <−1.5, and a minimum p-value of<0.05. HCT-116 cells had 340 differentially expressed genes post-treatment. FIG. 2C.

[2] = system: NK-92; assay: Luminex cytokine profiling of cell culture supernatant; format: cell-based, human
Procedure: (§1) Collection of cell culture supernatants used in cytokine measurements. Cells were plated at 3.5×10^4 cells in a 48-well plate (Thermo Fisher Scientific, Waltham, MA, USA) in complete medium and incubated at 37° C. with 5% CO2. At twenty-four hours after plating, almost all the tumor cells were adherent to the bottom of the flask and the complete medium was replaced with the drug-containing medium. Subsequently, the culture supernatants were collected after forty-eight hours of incubation and were frozen at −80° C. until the measurement of cytokines was performed. On the day of analysis, samples were thawed and centrifuged to remove cellular debris.
(§2) Human cytokine profiling. Human cell line culture supernatants were analyzed using an R&D systems Human Premixed Multi-Analyte Kit (R&D Systems, Inc., Minneapolis, MN, USA) and a Luminex 200 (RRID: SCR_018025) Instrument (LX200-XPON-RUO, Luminex Corporation, Austin, TX, USA) according to the manufacturer's instructions. Sample levels of TNF-α, 4-1BB/TNFRSF9/CD137, IL-8/CXCL8, Ferritin, IFN-β, IL-10, CCL2/JE/MCP-1, VEGF, CXCL13/BLC/BCA-1, IFN-γ, CCL20/MIP-3 α, CCL3/MIP-1 α, CCL22/MDC, CCL4/MIP-1 β, Fas Ligand/TNFSF6, IL-17/1L-17A, IL-2, BAFF/BLyS/TNFSF13B, GM-CSF, CXCLS/ENA-78, TRANCE/TNFSF11/RANK L, CXCL9/MIG, G-CSF, IFN-γ R1/CD119, VEGFR3/Flt-4, C-Reactive Protein/CRP, CXCL11/I-TAC, IL-21, CXCL14/BRAK, IL-6, Fas/TNFRSF6/CD95, TRAIL R3/TNFRSF10C, IL-4, CCL5/RANTES, PD-L1/137-H1, CCL7/MCP-3/MARC, Chitinase 3-like 1, CXCL10/IP-10/CRG-2, IL-1 μ/IL-1F2, IL-7, Prolactin, CCL8/MCP-2, TRAIL R2/TNFRSF10B, M-CSF, IL-15, Granzyme B, IFN-α, TREM-1, IL-12/1L-23 p40, TRAIL/TNFSF10, CCL11/Eotaxin, and 1L-18/1L-1F4. Quantitative analysis with 6 standards and a minimum of 50 counts per bead region was used with the Luminex to generate analyte values reported as picograms/milliliter (pg/mL). Sample concentrations less than the lower limit of detection for each particular analyte were recoded as the lower limit value divided by 10. Sample concentrations above the upper limit of detection for a particular analyte were recoded as the upper limit of detection.
(§3) Saos-2 osteosarcoma and 93T449 liposarcoma cell lines were pretreated at IC50 with elraglusib. The cells were harvested for Western blot analysis after 48 hours of treatment. Both cancer cell lines as well as TALL-104 T-cells and NK-92 NK cells were treated with 0.5 μM elraglusib for twenty-four hours and harvested for Luminex cytokine profiling.
(§4) Because the previously observed non-canonical NF-κB pathway activation enhances the expression of immune cell chemotactic chemokines and cytokines, the inventors determine how elraglusib treatment impacts the immune cell secretome. TALL-104 and NK-92 cells were treated with 1 μM elraglusib for forty-eight hours before cell culture supernatant was collected for cytokine profile analysis.

[3] = system: TALL-104; assay: as above; format: cell-based, human
Procedure: as §1, §2, §3, §4

[4] = system: refractory solid tumors of multiple tissue origins; assay: Phase 1 clinical trial (NCT03678883), survival; format: in vivo, human
Procedure: Clinical specimens. Archival tumor specimens and peripheral blood samples were collected from patients enrolled in the Phase I study of elraglusib (Clinicaltrials.gov NCT03678883) who received treatment at the Lifespan Cancer Institute (Providence, RI, USA). The analysis was conducted in accordance with the Declaration of Helsinki and the International Conference on Harmonization Good Clinical
Patient plasma concentrations of cytokines from a Phase 1 clinical trial investigating elraglusib correlate with progression-free survival, overall survival, and in vivo response to therapy results. To determine the clinical relevance of the biomarkers of response identified in our murine model, the inventors next employed Luminex 200 technology to analyze plasma samples from patients with refractory solid tumors of multiple tissue origins enrolled in a Phase 1 clinical trial investigating elraglusib (NCT03678883).
TABLE 14 description. Individual patient information for human cytokine analysis. Tumor type, elraglusib dose (mg, mg/kg), number of cycles, age at enrollment, sex, race, ethnicity, median progression free survival and median overall survival data is shown (N=19).

[5] = N=19 patients, multiple tumor types
[6] = Subject 05003, Colorectal, 1 mg/kg
[7] = Subject 05005, Colorectal, 1 mg/kg, 2 cycles

## Cn1cc(C2=C(c3coc4ccc(F)cc34)C(=O)NC2=O)c2cc3c(cc21)OCO3 [elraglusib]
[1]
  CMTM4 fold change: −1.84
  NEK2 fold change: −2.21
  PPP1R1C fold change: 1.78
[2]; 0.5 μM, twenty-four hours
  IL-8 chemokine: increase
  soluble TRAIL (TRAIL/TNFSF10): increase
[2]; 1 μM, forty-eight hours
  IFN-γ concentration: increases
  TRAIL concentration: increases
  secreted granzyme B concentration: decreases
[2]; twenty-four hours, effect smaller than in TALL-104
  IFN-γ in cell culture supernatants: significant increase
[3]; 0.5 μM, twenty-four hours
  CXCL11: increase
  IL-18: increased level
[3]; 1 μM, forty-eight hours
  IFN-γ concentration: increases
  TRAIL concentration: increases
  granzyme B concentration: increases
[3]; twenty-four hours
  IFN-γ in cell culture supernatants: significant increase
[4]; [5]
  median overall survival: 101 days
  median progression-free survival: 75.9 days
[4]; [6]
  OS: 26 days
  PFS: 26 days
[4]; Subject 05004, Colorectal, 1 mg/kg
  PFS: 28 days
[4]; [7]
  OS: 105 days
  PFS: 99 days
[4]; Subject 05006, HCC, 2 mg/kg
  OS: 234 days
  PFS: 234 days
[4]; Subject 05009, Cholangiocarcinoma, 2 mg/kg
  PFS: 46 days
[4]; Subject 05011, NSCLC, 2 mg/kg
  OS: 39 days
  PFS: 31 days
[4]; Subject 05013, Colorectal, 3.3 mg/kg
  PFS: 130 days
[4]; Subject 05017, Colorectal, 5 mg/kg
  PFS: 83 days
[4]; Subject 05018, NSCLC, 5 mg/kg
  PFS: 41 days
[4]; Subject 05024, Appendix, 7 mg/kg
  PFS: 41 days
